# Assay results reported in patent US12458702B2 (NATIONAL TAIWAN UNIVERSITY, priority 2022, dated 2025).
# Where two headings read alike, the source gives them in different places.
# Experiments:
# HT-29 [1] = test: Cytotoxicity by SRB assay in HT-29 cells
# Description: (§2) Cancer cell lines were obtained from ATCC unless otherwise noted. HT-29 and HCT-116 cells were cultured in Dulbecco's Modified Eagle Medium (DMEM, Thermo Fisher Scientific) with 10% fetal bovine serum (FBS, Thermo Fisher Scientific) and 1% antibiotic-antimycotic (Thermo Fisher Scientific).
# (§3) Briefly, CRC cells were seeded at a density of 5×10^3 cells/well in 96-well microtiter plates (100 μL/well), separated into two groups with or without GSH. After incubation for 24 hours, the culture medium was replaced by fresh medium (100 μL). […] After incubation, 10% cold trichloroacetic acid was gently added to each well and incubated at 4° C. for 1 h. The medium was removed, carefully washed with water, and dried at room temperature. […] The optical density (O.D.) was measured at 510 nm with Multi-Mode Microplate Reader (SpectraMax Paradigm, Beckman Coulter, U.S.). The fraction of cell survival was calculated as follows. Survival fraction=(OD treated−blank)/(OD control−blank). […] Each experiment was repeated three times.
# GLUT-1 = test: 2-NBDG uptake assay in COS-7 cells that overexpress GLUT-1; assay type: cell-based; conditions: 50 μM and 100 μM
# Description: COS-7 cells were seeded in 96-well culture plates and grown in low-glucose Dulbecco's Modified Eagle's medium supplemented with 10% fetal bovine serum and 2 mM L-glutamine for 24 h. After washing with Krebs Ringer bicarbonate buffer (KRB) (10 mM HEPES, 129 mM NaCl, 4.7 mM KCl, 2 mM CaCl2) and 1.2 mM MgSO4, 1.2 mM KH2PO4, 5 mM NaHCO3, pH 7.4), cells were incubated with the compounds to be tested in KRB containing 2-NBDG (200 μM) for 90 min at 37° C. in a 5% CO2 atmosphere, and then washed twice with KRB and lysed with lysis buffer (1% Nonidet P-40, 1% sodium deoxycholate, 40 mM KCl, and 20 mM Tris, pH 7.4). Finally, the lysates were transferred to black 96-well plates and fluorescence intensity was detected with a Multi-Mode Microplate Reader (SpectraMax Paradigm, Beckman Coulter, USA) using an excitation wavelength of 475 nm and an emission wavelength of 550 nm.
# [2] = test system: CRC cell lines HCT-116 and HT-29; test: Cytotoxicity against CRC cell lines, summary over both lines (SRB assay); assay type: cell-based, human; conditions: HCT-116 and HT-29, with or without GSH
# Description: (§1) The fraction of cell survival was calculated as follows. Survival fraction=(OD treated−blank)/(OD control−blank). […] Each experiment was repeated three times.
# HCT-116 = test: Cytotoxicity by SRB assay in HCT-116 cells; assay type: cell-based, human
# Description: as §1
# [3] = test system: orthotopic CRC mice model; test: Orthotopic AOM/DSS-induced CRC mice model, tumor area; assay type: in vivo, BALB/c mice; conditions: SN-38 series; i.v. once every two days for two weeks; 40 mg/kg vs irinotecan 40 mg/kg
# Description: Azoxymethane (AOM)-induced murine CRC model was applied to model human CRC. BALB/c mice (6 weeks of age, male) were intraperitoneally (i.p.) injected once every two weeks with AOM (10 mg/kg body weight) or the PBS vehicle. Seven days after each AOM injection, 2% dextran sulfate sodium (DSS) was given in the drinking water for four days, followed by 3 days of regular water. This cycle was repeated three times. The mice were randomly divided into eight groups (n=5), on day 60 after the first AOM treatment. […] Tumor volumes and body weights were recorded at sacrifice. The tumors were counted under a dissecting microscope, and the area covered by tumors was measured by imaging software (AxioVision LE 4.8.2.0).
# HT-29 [4] = test system: HT-29
# Description: as §2, §3
# [5] = Homo sapiens, HT-29, 48 h, read-out: IC50 HT-29
Compound,IC50 (HT-29 [1]; [5]) [µM],"IC50 (HT-29 [1]; Homo sapiens, HT-29, 48 h, read-out: IC50 HT-29 5 mM GSH) [µM]","IC50 (HT-29 [1]; Homo sapiens, HT-29, 48 h, read-out: IC50 HT-29 w/o GSH) [µM]","IC50 (HT-29 [1]; read-out: IC50 HT-29 5 mM GSH, 48 h, prepared in DMA, 5 mM GSH) [µM]","IC50 (HT-29 [1]; read-out: IC50 HT-29 w/o GSH, 48 h, prepared in DMA, w/o GSH) [µM]","inhibition of GLUT-1 activity (2-NBDG uptake), in words (GLUT-1)","cytotoxicity against CRC cell lines, in words [2]","IC50 (HCT-116; Homo sapiens, HCT-116, read-out: IC50 HCT-116 5 mM GSH, 48 h, 5 mM GSH) [µM]","IC50 (HCT-116; Homo sapiens, HCT-116, read-out: IC50 HCT-116 5 mM GSH, 72 h, prepared in DMA, 5 mM GSH) [µM]","IC50 (HCT-116; Homo sapiens, HCT-116, 48 h, prepared in DMSO, read-out: IC50 HCT-116) [µM]","IC50 (HCT-116; Homo sapiens, HCT-116, 48 h, w/o GSH, read-out: IC50 HCT-116 w/o GSH) [µM]","IC50 (HCT-116; Homo sapiens, HCT-116, 72 h, prepared in DMA, w/o GSH, read-out: IC50 HCT-116 w/o GSH) [µM]","anti-tumor efficacy (tumor area), in words [3]","cytotoxicity in HT-29 cell line, in words (HT-29 [4])","IC50 (HCT-116; 48 h, prepared in DMSO, read-out: IC50 HCT-116) [µM]","IC50 (HCT-116; Homo sapiens, HCT-116, 48 h, 48 h, prepared in DMSO, read-out: IC50 HCT-116) [µM]"
"O=C(CCc1ccc(O)cc1)c1c(O)cc(OCCOCCOCCS)cc1O[C@@H]1O[C@H](CO)[C@@H](O)C(O)[C@H]1O (stereo partly drawn) [Compound 16, 1-(2-Hydroxy-4-(2-(2-(2-mercaptoethoxy)ethoxy)ethoxy)-6-(((2S,3R,5S,6R)-3,4,5-trihydroxy-6-(hydroxymethyl)tetrahydro-2H-pyran-2-yl)oxy)phenyl)-3-(4-hydroxyphenyl)propan-1-one]",> 100,> 100,> 100,> 100,> 100,not able to inhibit GLUT-1,did not exhibit any inhibitory activity,> 100,> 100,> 100,> 100,> 100,,,,
CCc1c2c(nc3ccc(OCc4ccc(NC(=O)[C@H](CCCNC(N)=O)NC(=O)[C@@H](NC(=O)CCCCN5C(=O)CC(SCCOCCOCCOc6cc(O)c(C(=O)CCc7ccc(O)cc7)c(O[C@@H]7O[C@H](CO)[C@@H](O)[C@H](O)[C@H]7O)c6)C5=O)C(C)C)cc4)cc13)-c1cc3c(c(=O)n1C2)COC(=O)[C@]3(O)CC (some centres unmarked) [Compound 37],> 100,,,,,,,,,,,,ameliorated the tumor area,less sensitive,3.25 ± 0.42,3 to 7
